{"source": "paper PMC3777193", "about": "“Diaryl- and triaryl-pyrrole derivatives: inhibitors of the MDM2–p53 and MDMX–p53 protein–protein interactions” (Medchemcomm, 2013)", "key": {"MDM2–p53": {"biological_target": "MDM2–p53 (Homo sapiens, UniProt Q00987)", "sequence (Q00987 whole entry)": "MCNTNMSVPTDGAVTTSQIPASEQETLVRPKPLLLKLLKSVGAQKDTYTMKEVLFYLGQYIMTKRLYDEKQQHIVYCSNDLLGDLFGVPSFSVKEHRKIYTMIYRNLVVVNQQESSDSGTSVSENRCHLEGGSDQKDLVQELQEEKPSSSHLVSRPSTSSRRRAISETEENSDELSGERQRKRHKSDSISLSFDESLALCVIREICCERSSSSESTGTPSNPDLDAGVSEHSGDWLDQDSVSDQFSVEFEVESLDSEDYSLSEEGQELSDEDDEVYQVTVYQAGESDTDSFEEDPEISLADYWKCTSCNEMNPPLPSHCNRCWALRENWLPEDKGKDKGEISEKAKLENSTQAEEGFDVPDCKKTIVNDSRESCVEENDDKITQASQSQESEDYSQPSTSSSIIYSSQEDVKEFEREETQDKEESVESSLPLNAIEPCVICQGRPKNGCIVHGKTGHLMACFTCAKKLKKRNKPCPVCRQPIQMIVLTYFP", "test": "MDM2–p53 ELISA protein–protein binding assay", "settings": "for fold loss of potency against MDM2–p53: N-alkyl malonamides compared with 10c"}, "MDMX–p53": {"biological_target": "T1, MDMX–p53 (Homo sapiens, UniProt O15151)", "T1 construct": "host or cells: in vitro coupled T7 transcription and rabbit reticulocyte lysate translation", "T1 sequence (O15151 1-490)": "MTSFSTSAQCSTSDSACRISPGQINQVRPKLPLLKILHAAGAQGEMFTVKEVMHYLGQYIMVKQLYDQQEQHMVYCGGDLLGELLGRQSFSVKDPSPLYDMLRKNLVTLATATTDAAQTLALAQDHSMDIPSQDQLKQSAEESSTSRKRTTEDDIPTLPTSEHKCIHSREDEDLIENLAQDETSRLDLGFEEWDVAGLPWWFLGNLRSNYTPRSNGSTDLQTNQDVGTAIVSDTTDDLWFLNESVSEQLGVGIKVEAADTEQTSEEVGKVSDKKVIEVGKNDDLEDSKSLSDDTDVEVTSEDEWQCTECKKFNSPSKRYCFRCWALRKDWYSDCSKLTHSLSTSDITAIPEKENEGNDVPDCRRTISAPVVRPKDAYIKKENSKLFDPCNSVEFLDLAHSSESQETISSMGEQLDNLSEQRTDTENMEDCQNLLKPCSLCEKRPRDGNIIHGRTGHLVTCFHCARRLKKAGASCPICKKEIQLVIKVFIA", "test": "MDMX–p53 ELISA binding assay"}, "MRK-NU-1": {"system": "MRK-NU-1", "test": "Growth inhibitory activity, MRK-NU-1", "settings": "Homo sapiens, MRK-nu-1, read-out: GI50 MRK-NU-1", "method": "(§1) Growth inhibitory activity was determined for selected pyrroles in a panel of cell lines with defined MDM2, MDMX and p53 status (Table 5)."}, "SJSA-1": {"system": "SJSA-1", "test": "Growth inhibitory activity, SJSA-1", "settings": "Homo sapiens, SJSA-1, read-out: GI50 SJSA-1", "method": "as §1"}, "SN40R2": {"system": "SN40R2", "test": "Growth inhibitory activity, SN40R2", "settings": "read-out: GI50 SN40R2", "method": "as §1"}, "[1]": {"settings": "Table 3, n = 3 (b n = 5), read-out: MDM2 IC50"}, "[2]": {"settings": "Table 3, n = 3 (c n = 1), read-out: MDMX IC50"}}, "note": "Where two headings read alike, the source gives them in different places.", "data": [{"molecule": "CCN1C(=O)C(=Cc2cc(-c3ccccc3)n(-c3ccc(Cl)cc3)c2-c2ccccc2)C(=O)N(CC)C1=S", "note": "[Compound 4u]", "values": [{"measurement": "fold less potent against MDM2 compared with unsubstituted analogues", "setting": "MDM2–p53", "value": "3–4 fold"}, {"measurement": "IC50", "setting": "MDM2–p53; read-out: MDM2 IC50", "value": "0.3 ± 0.12", "unit": "µM"}]}, {"molecule": "CCN1C(=O)C(=Cc2cc(-c3ccccc3)n(-c3ccc(Br)cc3)c2-c2ccccc2)C(=O)N(CC)C1=O", "note": "[Compound 4v]", "values": [{"measurement": "fold less potent against MDM2 compared with unsubstituted analogues", "setting": "MDM2–p53", "value": "3–4 fold"}, {"measurement": "IC50", "setting": "MDM2–p53; read-out: MDM2 IC50", "value": "0.89 ± 0.04", "unit": "µM"}, {"measurement": "inhibition at 50 µM", "setting": "MDMX–p53; read-out: MDMX % inhibition at 50 μM", "value": 74, "unit": "%"}]}, {"molecule": "CCN1C(=O)C(=Cc2cc(-c3ccccc3)n(-c3ccc(Br)cc3)c2-c2ccccc2)C(=O)N(CC)C1=S", "note": "[Compound 4w]", "values": [{"measurement": "IC50", "setting": "MDM2–p53; read-out: MDM2 IC50", "value": "0.26 ± 0.05", "unit": "µM"}]}, {"molecule": "CN1C(=O)C(=Cc2cc(-c3ccccc3)n(-c3ccc(Cl)cc3)c2-c2ccccc2)C(=O)NC1=S", "note": "[Compound 4x]", "values": [{"measurement": "GI50", "setting": "MRK-NU-1", "value": "7 ± 1", "unit": "µM"}, {"measurement": "IC50", "setting": "MDM2–p53", "value": "0.11 ± 0.02", "unit": "µM"}, {"measurement": "GI50", "setting": "SJSA-1", "value": "5.5 ± 0.6", "unit": "µM"}, {"measurement": "IC50", "setting": "MDMX–p53", "value": "28 ± 23", "unit": "µM"}, {"measurement": "GI50", "setting": "SN40R2", "value": "6.3 ± 0.4", "unit": "µM"}]}, {"molecule": "CN1C(=O)NC(=O)C(=Cc2cc(-c3ccccc3)n(-c3ccc(Br)cc3)c2-c2ccccc2)C1=O", "note": "[Compound 4y]", "values": [{"measurement": "IC50", "setting": "MDM2–p53", "value": "0.34 ± 0.08", "unit": "µM"}, {"measurement": "IC50", "setting": "MDMX–p53", "value": "35 ± 20", "unit": "µM"}]}, {"molecule": "CN1C(=O)C(=Cc2cc(-c3ccccc3)n(-c3ccc(Br)cc3)c2-c2ccccc2)C(=O)NC1=S", "note": "[Compound 4z]", "values": [{"measurement": "IC50", "setting": "MDM2–p53", "value": "0.073 ± 0.002", "unit": "µM"}]}, {"molecule": "CC1(C)OC(=O)C(=Cc2cc(-c3ccccc3)n(-c3ccc(Br)cc3)c2-c2ccccc2)C(=O)O1", "note": "[Compound 7]", "values": [{"measurement": "fold less potent than 8c against MDM2–p53", "setting": "MDM2–p53", "value": "> 100", "unit": "fold"}, {"measurement": "IC50", "setting": "MDM2–p53; [1]", "value": "17 ± 4", "unit": "µM"}]}, {"molecule": "CC1(C)OC(=O)C(Cc2cc(-c3ccccc3)n(-c3ccc(Br)cc3)c2-c2ccccc2)C(=O)O1", "note": "[Compound 9]", "values": [{"measurement": "fold less potent than 8c against MDM2–p53", "setting": "MDM2–p53", "value": 20, "unit": "fold"}, {"measurement": "IC50", "setting": "MDM2–p53; [1]", "value": "2.9 ± 0.7", "unit": "µM"}]}, {"molecule": "COC(=O)C(=Cc1cc(-c2ccccc2)n(-c2ccc(Cl)cc2)c1-c1ccccc1)C(=O)OC", "note": "[Compound 10a]", "values": [{"measurement": "activity against MDM2–p53 in words", "setting": "MDM2–p53", "value": "essentially inactive"}, {"measurement": "IC50", "setting": "MDM2–p53; [1]", "value": "> 50", "unit": "µM"}, {"measurement": "IC50", "setting": "MDMX–p53; [2]", "value": "> 50", "unit": "µM"}]}, {"molecule": "O=C(O)C(=Cc1cc(-c2ccccc2)n(-c2ccc(Cl)cc2)c1-c1ccccc1)C(=O)O", "note": "[Compound 10b]", "values": [{"measurement": "activity against MDM2–p53 in words", "setting": "MDM2–p53", "value": "modest activity"}, {"measurement": "IC50", "setting": "MDM2–p53; [1]", "value": "2.9 ± 0.2", "unit": "µM"}, {"measurement": "IC50", "setting": "MDMX–p53; [2]", "value": "> 50", "unit": "µM"}]}, {"molecule": "NC(=O)C(=Cc1cc(-c2ccccc2)n(-c2ccc(Cl)cc2)c1-c1ccccc1)C(N)=O", "note": "[Compound 10c]", "values": [{"measurement": "IC50", "setting": "MDM2–p53; [1]", "value": "2.5 ± 0.2", "unit": "µM"}, {"measurement": "IC50", "setting": "MDMX–p53; [2]", "value": 30, "unit": "µM"}]}, {"molecule": "CNC(=O)C(=Cc1cc(-c2ccccc2)n(-c2ccc(Cl)cc2)c1-c1ccccc1)C(=O)NC", "note": "[Compound 10d]", "values": [{"measurement": "fold loss of potency against MDM2–p53", "setting": "MDM2–p53", "value": 3, "unit": "fold"}, {"measurement": "IC50", "setting": "MDM2–p53; [1]", "value": "7.6 ± 0.4", "unit": "µM"}, {"measurement": "IC50", "setting": "MDMX–p53; [2]", "value": 30, "unit": "µM"}]}, {"molecule": "O=C(NCCO)C(=Cc1cc(-c2ccccc2)n(-c2ccc(Cl)cc2)c1-c1ccccc1)C(=O)NCCO", "note": "[Compound 10e]", "values": [{"measurement": "fold loss of potency against MDM2–p53", "setting": "MDM2–p53", "value": 6, "unit": "fold"}, {"measurement": "IC50", "setting": "MDM2–p53; [1]", "value": "15 ± 3", "unit": "µM"}, {"measurement": "IC50", "setting": "MDMX–p53; [2]", "value": 42, "unit": "µM"}]}, {"molecule": "O=C(O)/C=C/c1cc(-c2ccccc2)n(-c2ccc(Cl)cc2)c1-c1ccccc1", "note": "[Compound 10f]", "values": [{"measurement": "activity against MDM2–p53 in words", "setting": "MDM2–p53", "value": "only weakly active"}, {"measurement": "IC50", "setting": "MDM2–p53; [1]", "value": "17 ± 3", "unit": "µM"}, {"measurement": "activity against MDMX–p53 in words", "setting": "MDMX–p53", "value": "inactive"}, {"measurement": "IC50", "setting": "MDMX–p53; [2]", "value": "> 50", "unit": "µM"}]}, {"molecule": "CC(C)(C)c1cc(C=C2C(=O)NC(=S)NC2=O)c(-c2ccccc2)n1-c1ccc(Br)cc1", "note": "[Compound 11b]", "values": [{"measurement": "IC50", "setting": "MDM2–p53; read-out: MDM2 IC50", "value": "0.76 ± 0.27", "unit": "µM"}, {"measurement": "fold loss of potency for MDMX", "setting": "MDMX–p53", "value": "> 200", "unit": "fold"}, {"measurement": "IC50", "setting": "MDMX–p53; read-out: MDMX IC50", "value": 963, "unit": "µM"}]}, {"molecule": "CC(C)(C)c1cc(C=C2C(=O)NC(=S)NC2=O)c(-c2ccccc2)n1-c1ccc(Cl)cc1", "note": "[Compound 11c]", "values": [{"measurement": "IC50", "setting": "MDM2–p53; read-out: MDM2 IC50", "value": "1.1 ± 0.7", "unit": "µM"}, {"measurement": "fold loss of potency for MDMX", "setting": "MDMX–p53", "value": "> 200", "unit": "fold"}, {"measurement": "IC50", "setting": "MDMX–p53; read-out: MDMX IC50", "value": 1680, "unit": "µM"}]}, {"molecule": "O=C1NC(=S)NC(=O)C1=Cc1cc(-c2ccccc2)n(-c2ccc(Cl)cc2)c1C1CC1", "note": "[Compound 11d]", "values": [{"measurement": "IC50", "setting": "MDM2–p53; read-out: MDM2 IC50", "value": "1.6 ± 1.7", "unit": "µM"}, {"measurement": "IC50", "setting": "MDMX–p53; read-out: MDMX IC50", "value": 3490, "unit": "µM"}]}, {"molecule": "O=C1NC(=S)NC(=O)C1=Cc1cc(-c2ccccc2)n(-c2ccc(Br)cc2)c1C1CC1", "note": "[Compound 11e]", "values": [{"measurement": "IC50", "setting": "MDM2–p53; read-out: MDM2 IC50", "value": "1.6 ± 1.6", "unit": "µM"}, {"measurement": "IC50", "setting": "MDMX–p53; read-out: MDMX IC50", "value": 3430, "unit": "µM"}]}, {"molecule": "O=C1NC(=S)NC(=O)C1=Cc1cc(C2CC2)n(-c2ccc(Cl)cc2)c1-c1ccccc1", "note": "[Compound 11f]", "values": [{"measurement": "IC50", "setting": "MDM2–p53; read-out: MDM2 IC50", "value": "2.1 ± 2.7", "unit": "µM"}, {"measurement": "IC50", "setting": "MDMX–p53; read-out: MDMX IC50", "value": 4920, "unit": "µM"}]}, {"molecule": "O=C1NC(=S)NC(=O)C1=Cc1cc(C2CC2)n(-c2ccc(Br)cc2)c1-c1ccccc1", "note": "[Compound 11g]", "values": [{"measurement": "IC50", "setting": "MDM2–p53; read-out: MDM2 IC50", "value": "2.2 ± 2.7", "unit": "µM"}, {"measurement": "IC50", "setting": "MDMX–p53; read-out: MDMX IC50", "value": 5320, "unit": "µM"}]}]}
